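Each compound was tested at five concentrations against cells in 96-well plates for 48 hours. Here, GI50 denotes the concentration required for 50% inhibition of growth.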 Activity calls are given as the source filed them. No stated cut-off is given here; in the data, active = GI50 up to about 1.1 µM and inactive = higher.
Legend:
Test in all cases: NCI anticancer screen, dose series, 48 h
[1] = test system: RXF 393
[2] = test system: SF-295
[3] = test system: XF498
[4] = test system: NCI-H460
[5] = test system: EKVX
[6] = test system: M14
[7] = test system: LXFL 529
[8] = test system: SF-268
[9] = test system: U-251
[10] = test system: ACHN
[11] = test system: KM12
[12] = test system: HCT-15
[13] = test system: SNB-19
[14] = test system: UACC-257
[15] = test system: IGROV-1
[16] = test system: SK-OV-3
[17] = test system: SW-620
[18] = test system: TK-10
[19] = test system: RPMI-8226
[20] = test system: SN12C
[21] = test system: OVCAR-3
[22] = test system: HOP-92
[23] = test system: DMS-273
[24] = test system: NCI-H23
[25] = test system: OVCAR-5
[26] = test system: SNB-78
[27] = test system: A498
[28] = test system: COLO 205
[29] = test system: HOP-62
[30] = test system: LOX IMVI
[31] = test system: DMS-114
[32] = test system: OVCAR-8
[33] = test system: SK-MEL-5
[34] = test system: HOP-18
[35] = test system: HL-60
[36] = test system: UO-31
[37] = test system: M19-MEL
[38] = test system: SF-539
[39] = test system: A549
[40] = test system: CCRF-CEM
[41] = test system: K562
[42] = test system: CAKI-1
[43] = test system: NCI-H522
[44] = test system: 786-0
[45] = test system: MOLT-4
[46] = test system: KM-20L2
[47] = test system: UACC-62
[48] = test system: NCI-H226
[49] = test system: HCT-116
[50] = test system: DLD-1
[51] = test system: RXF 631
[52] = test system: SK-MEL-28
[53] = test system: Malme-3M
[54] = test system: SK-MEL-2
[55] = test system: HCC 2998
[56] = test system: SR
[57] = test system: SNB-75
[58] = test system: HT-29
[59] = test system: OVCAR-4

Measured: GI50

Cc1cccc(C)c1NC(=O)CCC(=O)NNc1nnc(C)n1N
inactive: [1] > 100 µM | [2] > 100 µM | [3] > 100 µM | [4] > 100 µM | [5] > 100 µM | [6] > 100 µM | [7] > 100 µM | [8] > 100 µM | [9] > 100 µM | [10] > 100 µM | [11] > 100 µM | [13] > 100 µM | [14] > 100 µM | [15] > 100 µM | [16] > 100 µM | [17] > 100 µM | [18] > 100 µM | [19] > 100 µM | [20] > 100 µM | [21] > 100 µM | [22] > 100 µM | [23] > 100 µM | [24] > 100 µM | [25] > 100 µM | [26] > 100 µM | [27] 53.3 µM | [28] > 100 µM | [29] > 100 µM | [30] > 100 µM | [31] > 100 µM | [32] > 100 µM | [33] > 100 µM | [34] > 100 µM | [35] > 100 µM | [36] > 100 µM | [37] > 100 µM | [38] > 100 µM | [39] > 100 µM | [40] > 100 µM | [41] > 100 µM | [42] > 100 µM | [43] > 100 µM | [44] > 100 µM | [45] > 100 µM | [46] > 100 µM | [47] > 100 µM | [48] > 100 µM | [49] > 100 µM | [50] > 100 µM | [51] > 100 µM | [52] > 100 µM | [53] > 100 µM | [54] > 100 µM | [55] > 100 µM | [56] > 100 µM | [57] > 100 µM | [58] > 100 µM | [59] > 100 µM
> 100 µM: [12]

CC(=O)OC1COC(N2C(=O)C(=O)c3cc(Br)ccc32)C(OC(C)=O)C1OC(C)=O (stereo not given)
> 100 µM: [12]
inactive: [1] > 100 µM | [2] > 100 µM | [3] > 100 µM | [4] > 100 µM | [5] > 100 µM | [6] > 100 µM | [7] > 100 µM | [8] > 100 µM | [9] > 100 µM | [10] > 100 µM | [11] > 100 µM | [13] > 100 µM | [14] > 100 µM | [15] > 100 µM | [16] > 100 µM | [17] > 100 µM | [18] > 100 µM | [19] > 100 µM | [20] > 100 µM | [21] > 100 µM | [22] > 100 µM | [23] > 100 µM | [24] > 100 µM | [26] > 100 µM | [27] > 100 µM | [28] > 100 µM | [29] > 100 µM | [30] > 100 µM | [31] > 100 µM | [32] > 100 µM | [33] > 100 µM | [34] > 100 µM | [36] > 100 µM | [37] 52.1 µM | [38] > 100 µM | [39] > 100 µM | [40] 71.3 µM | [41] > 100 µM | [42] > 100 µM | [43] > 100 µM | [44] > 100 µM | [45] 96.8 µM | [46] > 100 µM | [47] > 100 µM | [48] > 100 µM | [50] > 100 µM | [51] > 100 µM | [52] > 100 µM | [53] > 100 µM | [54] > 100 µM | [55] > 100 µM | [56] > 100 µM | [57] > 100 µM | [58] > 100 µM | [59] > 100 µM

From ChEMBL document CHEMBL1201862, “PubChem BioAssay data set” (2004)
